In PubChem BioAssay AID1259408 (Genetic Toxicology Data Bank (GENE-TOX), 2018) one finds mutagenic call and call data, which are given here for 20 compounds.

Calls of active or inactive are those of the source. How the calls were made is not given here.

The data set has as its system GENE-TOX genotoxicity assays, various organisms and cells. The experiment in a line: GENE-TOX mutagenicity studies. The conditions noted are these: for call: Assay Type: In vivo carcinogenicity studies.
Where [1] appears, read: Species/Cell Type: Salmonella typhimurium (one or more of the five standard strains: TA98, TA100, TA1535, TA1537, and TA1538), Assay Type: Histidine reverse gene mutation, Ames assay, Assay Code: SALT, Evaluation Type: Evaluation A (Pre-1980).
[2] abbreviates: Species/Cell Type: Bacillus subtilis (H17 vs M45), Assay Type: Rec-assay, spot test, DNA effects (bacterial DNA repair), Assay Code: REWT, Evaluation Type: Evaluation A (Pre-1980).
[3] abbreviates: Species/Cell Type: Bacillus subtilis (H17 vs M45T), Assay Type: Rec-assay, spot test, DNA effects (bacterial DNA repair), Assay Code: REXT, Evaluation Type: Evaluation A (Pre-1980).
The mark [4] stands for this setting: Species/Cell Type: Salmonella typhimurium (one or more of the five standard strains: TA98, TA100, TA1535, TA1537, and TA1538), Assay Type: Histidine reverse gene mutation, Ames assay, Assay Code: SAL+, Evaluation Type: Evaluation A (Pre-1980).
The mark [5] stands for this setting: Species/Cell Type: Saccharomyces cerevisiae, Assay Type: Mitotic recombination or gene conversion, Assay Code: YEC-, Evaluation Type: Evaluation A (Pre-1980).
Setting [6] is: Species/Cell Type: Rodents, Sex: Male, Assay Type: Dominant lethal test, Assay Code: DLT-, Evaluation Type: Evaluation A (Pre-1980).
The mark [7] stands for this setting: Species/Cell Type: Salmonella typhimurium (one or more of the five standard strains: TA98, TA100, TA1535, TA1537, and TA1538), Assay Type: Histidine reverse gene mutation, Ames assay, Assay Code: SAL+*, Activation: With metabolic activation, Evaluation Type: Evaluation A (Pre-1980).
The mark [8] stands for this setting: Species/Cell Type: Syrian hamster embryo (SA7/SHE) cells, Assay Type: Cell transformation, viral enhanced, Assay Code: CT7+, Evaluation Type: Evaluation A (Pre-1980).

Regarding `COc1c2occc2cc2ccc(=O)oc12`, the mutagenic call is “inactive; negative” (Species/Cell Type: Aspergillus nidulans, Assay Type: Aneuploidy, chromosome aberrations, Assay Code: ASN-, Evaluation Type: Evaluation A (Pre-1980)); “no conclusion” (Species/Cell Type: Aspergillus nidulans, Assay Type: Forward gene mutation, Assay Code: ASFT, Evaluation Type: Evaluation A (Pre-1980)); “active; positive” (Species/Cell Type: Human lymphocytes, Assay Type: Sister-chromatid exchange (SCE) in vitro, Assay Code: SCL+, Evaluation Type: Evaluation B (Post-1980)); “no conclusion” (Species/Cell Type: Human lymphocytes, Assay Type: Sister-chromatid exchange (SCE) in vitro, Assay Code: SCLT, Evaluation Type: Evaluation A (Pre-1980)); “active; positive” (Species/Cell Type: Human, Assay Type: Sister-chromatid exchange (SCE) in vitro, Assay Code: SC1+, Evaluation Type: Evaluation B (Post-1980)); “no conclusion” (Species/Cell Type: Human, Assay Type: Sister-chromatid exchange (SCE) in vitro, Assay Code: SC1T, Evaluation Type: Evaluation A (Pre-1980)). The mutagenic call is “no conclusion” (Species/Cell Type: Nonhuman, Assay Type: Sister-chromatid exchange (SCE) in vitro, Assay Code: SC2T, Evaluation Type: Evaluation A (Pre-1980)); “no conclusion” (Species/Cell Type: Nonhuman, Assay Type: Sister-chromatid exchange (SCE) in vivo, Assay Code: SC3T, Evaluation Type: Evaluation B (Post-1980)); “active; positive” (Species/Cell Type: Saccharomyces cerevisiae, Assay Type: Mitotic recombination or gene conversion, Assay Code: YEH+, Evaluation Type: Evaluation A (Pre-1980)); “active; positive” (Species/Cell Type: Saccharomyces cerevisiae, Assay Type: Reverse gene mutation, Assay Code: YER+, Evaluation Type: Evaluation A (Pre-1980)); “no conclusion” under setting [1]. The call (Species/Cell Type: Nonhuman, Assay Code: CCGT, Evaluation Type: Evaluation A (Pre-1980)) is given as “no conclusion”.
For `NC(=O)N1c2ccccc2C=Cc2ccc(O)cc21`, the mutagenic call is, setting by setting: (Species/Cell Type: Human lymphocytes, Assay Type: Sister-chromatid exchange (SCE) in vitro, Assay Code: SCLT, Evaluation Type: Evaluation B (Post-1980)) “no conclusion”; (Species/Cell Type: Human, Assay Type: Sister-chromatid exchange (SCE) in vitro, Assay Code: SC1T, Evaluation Type: Evaluation B (Post-1980)) “no conclusion”.
On to `O=C(c1ccccc1)C(O)c1ccccc1` (configuration not stated), for which the call (Species/Cell Type: Nonhuman, Assay Code: CCG-L, Evaluation Type: Evaluation A (Pre-1980)) was “inactive; negative”.
Consider `O=[N+]([O-])c1cc([N+](=O)[O-])c2ccc(S(=O)(=O)O)cc2c1O`, for which the mutagenic call is “no conclusion” under setting [2], “no conclusion” under setting [3], “active; positive” under setting [4] and “no conclusion” under setting [1].
For `Clc1ccc(Oc2c(Cl)cc(Cl)cc2Cl)cc1`, the mutagenic call is, setting by setting: (Species/Cell Type: Saccharomyces cerevisiae, Assay Type: Forward gene mutation, Assay Code: YEF-, Evaluation Type: Evaluation A (Pre-1980)) “inactive; negative”; under setting [5], “inactive; negative”; (Species/Cell Type: Saccharomyces cerevisiae, Assay Type: Mitotic recombination or gene conversion, Assay Code: YEH-, Evaluation Type: Evaluation A (Pre-1980)) “inactive; negative”.
On to `CNN`, for which the mutagenic call is “active; positive” (Species/Cell Type: Escherichia coli WP2 UVRA, Assay Type: Tryptophan reverse gene mutation, Assay Code: WPU+, Evaluation Type: Evaluation A (Pre-1980)); “inactive; negative” (Species/Cell Type: Human diploid fibroblasts, Assay Type: Unscheduled DNA synthesis (UDS) in vitro, DNA effects, Assay Code: UDH-, Evaluation Type: Evaluation A (Pre-1980)); “inactive; negative” under setting [6]; “inactive; negative” under setting [5]; “active; positive” under setting [7]. In addition, the call (Species/Cell Type: Nonhuman, Assay Code: CCG+L, Evaluation Type: Evaluation A (Pre-1980)) is “active; positive”.
With `CC(=O)[O-].[Tl+]`, under setting [8], the mutagenic call was “active; positive”.
On to `ClCc1c2ccccc2cc2c1ccc1ccccc12`, for which, under setting [4], the mutagenic call is “active; positive”.
Consider `CC(=O)NS(=O)(=O)c1ccc(N)cc1`, for which the mutagenic call was “active; positive” (Species/Cell Type: Neurospora crassa, Assay Type: Aneuploidy, chromosome aberrations, Assay Code: NEN+, Evaluation Type: Evaluation A (Pre-1980)) and “active; positive” (Species/Cell Type: Saccharomyces cerevisiae, Assay Type: Aneuploidy, chromosome aberrations, Assay Code: YEN+, Evaluation Type: Evaluation A (Pre-1980)).
As to `CCCCCN(C)N=O`, for the setting “Species/Cell Type: Escherichia coli polA (W3119 vs P3478), Assay Type: Rec-assay, DNA effects (bacterial DNA repair), Assay Code: RE1+, Evaluation Type: Evaluation A (Pre-1980)”, the mutagenic call is “active; positive”.
`CCc1cc2c(c3ccc4ccccc4c13)CCC2=O`: the mutagenic call under setting [7] is “active; positive”.
As for `Cc1c2ccncc2c(C)c2c1[nH]c1ccc(O)cc12`, the mutagenic call (Species/Cell Type: Chinese hamster ovary (CHO) cells, Assay Type: Forward gene mutation at the HPRT locus, Assay Code: CHOT, Evaluation Type: Evaluation B (Post-1980)) is given as “no conclusion”.
As to `C#CC(C)N(C(=O)CCl)c1ccccc1` (configuration not stated), the mutagenic call under setting [5] was “inactive; negative”.
On to `Nc1ccc(-c2ccc(N)cc2)cc1`, for which the mutagenic call is “inactive; negative” (Species/Cell Type: Drosophila melanogaster, Assay Type: Sex-linked recessive lethal gene mutation, Assay Code: SRL-, Evaluation Type: Evaluation A (Pre-1980)); “no conclusion” (Species/Cell Type: Escherichia coli polA (W3119 vs P3478), Assay Type: Rec-assay, DNA effects (bacterial DNA repair), Assay Code: RE1T, Evaluation Type: Evaluation A (Pre-1980)); “active; positive” (Species/Cell Type: Fischer rat embryo (RLV/1706) cells, Assay Type: Cell transformation, viral enhanced, Assay Code: CTR+, Evaluation Type: Evaluation A (Pre-1980)); “no conclusion” (Species/Cell Type: Human diploid fibroblasts, Assay Type: Unscheduled DNA synthesis (UDS) in vitro, DNA effects, Assay Code: UDHT, Evaluation Type: Evaluation A (Pre-1980)); “active; positive” (Species/Cell Type: Human, Assay Type: Sister-chromatid exchange (SCE) in vitro, Assay Code: SC1+D*, Activation: With metabolic activation, Dose Response: With dose response, Evaluation Type: Evaluation B (Post-1980)); “active; positive” (Species/Cell Type: Mammalian polychromatic erythrocytes, Assay Type: Micronucleus test, chromosome aberrations, Assay Code: MNT+, Evaluation Type: Evaluation A (Pre-1980)). Besides, the mutagenic call is “active; positive” (Species/Cell Type: Mouse embryo (AKR/ME) cells, Assay Type: Cell transformation, Assay Code: CTK+, Evaluation Type: Evaluation A (Pre-1980)); “inactive; negative” (Species/Cell Type: Mouse, Sex: Male, Assay Type: Sperm morphology, Assay Code: SPI-, Evaluation Type: Evaluation A (Pre-1980)); “active; positive” (Species/Cell Type: Nonhuman, Assay Type: Sister-chromatid exchange (SCE) in vitro, Assay Code: SC2+D*, Activation: With metabolic activation, Dose Response: With dose response, Evaluation Type: Evaluation B (Post-1980)); “active; positive” (Species/Cell Type: Nonhuman, Assay Type: Sister-chromatid exchange (SCE) in vivo, Assay Code: SC3+, Evaluation Type: Evaluation B (Post-1980)); “active; positive” (Species/Cell Type: Rat primary hepatocytes, Assay Type: Unscheduled DNA synthesis (UDS) in vitro, DNA effects, Assay Code: UDP+, Evaluation Type: Evaluation A (Pre-1980)); “active; positive” under setting [7]. The mutagenic call was “active; positive” under setting [8]; “active; positive” (Species/Cell Type: Syrian hamster embryo (SHE) cells, Assay Type: Cell transformation, clonal assay, Assay Code: CTC+, Evaluation Type: Evaluation A (Pre-1980)); “active; positive” (Species/Cell Type: Tradescantia species, Assay Type: Gene mutation, Assay Code: TRM+D, Dose Response: With dose response, Evaluation Type: Evaluation A (Pre-1980)). For the same compound, under “Species/Cell Type: Nonhuman, Assay Code: CCG+, Evaluation Type: Evaluation A (Pre-1980)”, the call is “active; positive”.
For the compound `CN=[N+]([O-])Cc1ccc(C(=O)NC(C)C)cc1`, the mutagenic call (Species/Cell Type: Nonhuman, Assay Type: Sister-chromatid exchange (SCE) in vitro, Assay Code: SC2+, Evaluation Type: Evaluation B (Post-1980)) is “active; positive”.
Regarding `C/C(=N\O)c1ccc([N+](=O)[O-])s1`, the mutagenic call under setting [1] is “no conclusion”.
With `CC(=O)O/C=C/Cc1ccc2c(c1)OCO2`, the mutagenic call (Species/Cell Type: Human diploid fibroblasts, Assay Type: Unscheduled DNA synthesis (UDS) in vitro, DNA effects, Assay Code: UDH+, Evaluation Type: Evaluation A (Pre-1980)) is “active; positive”.
In the case of `Cc1cc(C)c(S(=O)(=O)O)cc1N=Nc1cc(S(=O)(=O)O)c2ccccc2c1O`, the mutagenic call by setting is: under setting [2], “no conclusion”; under setting [3], “no conclusion”; (Species/Cell Type: Salmonella typhimurium (one or more of the five standard strains: TA98, TA100, TA1535, TA1537, and TA1538), Assay Type: Histidine reverse gene mutation, Ames assay, Assay Code: SAL-, Evaluation Type: Evaluation A (Pre-1980)) “inactive; negative”.
As to `CCOC(=O)Nc1ccc(-c2c3ccccc3c3cc(N)ccc3[n+]2C)cc1`, the mutagenic call under setting [4] was “active; positive”.
On to `O=S(=O)(O)c1ccccc1/C=C\c1ccc(-c2ccc(/C=C\c3ccccc3S(=O)(=O)O)cc2)cc1`, for which the mutagenic call is “inactive; negative” under setting [6]; “no conclusion” (Species/Cell Type: Saccharomyces cerevisiae, Assay Type: Mitotic recombination or gene conversion, Assay Code: YECT, Evaluation Type: Evaluation A (Pre-1980)); “no conclusion” under setting [1].
